Laboratory results reported in publication PMC10222839, “Development of Novel Small-Molecule Activators of Pyruvate Kinase Muscle Isozyme 2, PKM2, to Reduce Photoreceptor Apoptosis” (Pharmaceuticals, 2023).
In brackets after ≈: the same amount, converted by molar mass.

Key:
human recombinant PKM2 = target: T1, human recombinant PKM2 (Homo sapiens, UniProt P14618); assay: Pyruvate kinase enzyme-coupled (LDH/NADH) assay with recombinant PKM2; format: biochemical; conditions: for AC50: recombinant human PKM2, n = 3, best-fit value ± std. error; for Emax: recombinant human PKM2, n = 3, normalized to DMSO-treated enzyme, read-out: Recombinant PKM2 Max Activation
T1 construct: purchased Sigma SAE0021
Procedure: (§1) Recombinant Enzyme. An enzyme-coupled assay that measures the depletion of NADH via absorbance at 340 nm and uses lactate dehydrogenase (LDH) was employed to determine the activity of pyruvate kinase (PK). To determine the AC50 (concentration of activator necessary to achieve half-maximal activation) of the different small molecules with PKM2, assays were conducted in a 96-well format using 200 μL/well assay volume with 10 nM human recombinant PKM2 (Sigma, St. Louis, MO, USA, Cat No. SAE0021) or PKM1 (Sigma, […], Cat No. SRP0415), differing concentrations of activator, 0.5 mM PEP, 1 mM ADP, 0.2 mM NADH, and 8 U of LDH in a buffer of 50 mM Tris-HCl (pH 7.4), 100 mM KCl, and 5 mM MgCl2 as previously described. A SPECTROstar Omega plate reader (BMG LABTECH Inc., Cary, NC, USA) monitored absorbance at 340 nm. The MARS software suite was utilized to determine initial velocities. Data were normalized to DMSO (dimethyl sulfoxide)-treated enzyme activity, as previously described.

[1] = target: T2, pyruvate kinase (PK) activity in 661W cells (Mus musculus, UniProt P52480); assay: PK activity in 661W cell lysates after 2 h incubation with activator; format: cell-based; conditions: for AC50: n = 3; for Emax: n = 3, read-out: 661W Cells Max Activation
T2 construct: endogenous in cells; host or cells: 661W photoreceptor-like cells
Procedure: The potency and efficacy of each compound, 1 through 5, was assessed with recombinant human PKM2 using an enzyme-coupled assay that uses lactate dehydrogenase and measures the reduction in NADH via absorbance at 340 nm. […] To assess the ability of this pyridazinoindolone series of compounds to cross cellular membranes and increase PK activity, we utilized 661W cells, which are immortalized photoreceptor-like cells that express cone markers.
Cell culture. Next, 661W cells were incubated with either DMSO or different concentrations of small-molecule PKM2 activator for 2 h, lysed and homogenized in RIPA Lysis and Extraction Buffer (Thermo Fisher, Waltham, MA, USA, Cat No. 89900) with protease inhibitors (Complete-Mini, Roche Diagnostics, Indianapolis, IN, USA), and centrifuged at 10,000 rpm for 10 min to remove cellular debris. The supernatant (4–8 μL) was then used to assess the pyruvate kinase activity as described above. The total protein content was determined using the Pierce BCA protein assay kit (Thermo Fisher, Waltham, MA, USA, Cat No. 23225) with the Pierce™ Bovine Serum Albumin Standard Pre-Diluted Set (Thermo Fisher, Waltham, MA, USA, Cat No. 23208) and used to normalize activity as described previously.

[2] = Aqueous solubility (Analiza, nitrogen detector); format: physicochemical; conditions: aqueous buffer, thermodynamic from solid; PBS, pH 7.4, 24 h, ambient temperature (Table 3)
Procedure: (§2) In brief, each compound was tested at a concentration of 200 μM in PBS, pH 7.4, and room temperature. […] The area of the principal peak in a calibration standard for each compound (200 μM) in organic solvent (60/40 v/v% methanol: water) was compared to the area of the corresponding peak in the PBS sample [42]. Compounds 16–21 underwent solubility testing at Analiza (Cleveland, OH, USA), a contract research organization. Five hundred microliters of PBS, pH 7.4 was added to each amount of compound provided. The samples were vortexed briefly and then placed on a rotary shaker at 200 RPM for 24 h at ambient temperature. Thereafter, the samples were vacuum filtered through a 0.45-micron membrane, and the filtrates were injected into a nitrogen detector for quantification. The nitrogen detector was calibrated using standards, and the filtrates were quantitated based on the calibration curve.

[3] = target: T3, pyruvate kinase (PK) activity in rat retina (Rattus norvegicus, UniProt P11980); assay: PK activity in rat retina after intravitreal injection; format: in vivo; conditions: intravitreal injection in rats
T3 construct: the retina from each rat eye was dissected from the RPE-choroid, homogenized, and lysed; from tissue; host or cells: retina of adult Brown-Norway rats
Procedure: The intravitreal injection of medications has revolutionized how numerous retinal diseases are treated and are ever-increasing in ophthalmic clinical practice. Therefore, to assess the ability of these small molecules to activate PK in vivo in the rat retina, we utilized this well-accepted drug delivery method. Two microliters of each respective compound at 850 μM or DMSO were intravitreally injected into rat eyes. The vitreous volume of the rat eye was assumed to be 15 μL, giving a final intravitreal concentration of approximately 100 μM for each compound after injection. Retinas were harvested four hours after injection, lysed, and assayed for PK activity as previously described. The eyes treated with DMSO served as the control upon which PK activation was based.
(§3) Two microliters of each respective compound at 8.5 μM (final vitreous concentration of 1 μM) or DMSO was intravitreally injected into rat eyes, and the PK activity was assessed four hours later.
Animals. Intravitreal injections of various small-molecule PKM2 activators or vehicle (DMSO) were performed in Brown-Norway adult rats. The rats were anesthetized with ketamine (90 mg/mL) and xylazine (10 mg/mL) and their pupils dilated with topical phenylephrine (2.5%) and tropicamide (1%) as described previously. A sclerotomy was created with a 25-gauge microvitreoretinal blade (Walcott Rx Products, Ocean View, NJ, USA) just posterior to the limbus. A blunt 35-gauge cannula was inserted through this sclerotomy into the vitreous cavity to deliver 2 μL of different concentrations of small-molecule activator or DMSO. This injection volume produces minimal reflux with adequate reproducibility. Fifteen microliters of vitreous volume was assumed in rats to calculate the intravitreal concentrations of the compound after injection. As we have previously described, left eyes were treated with small-molecular activator, while right eyes were treated with DMSO, which served as the control upon which pyruvate kinase activation was based. Four hours later, the retina from each rat eye was dissected from the RPE-choroid, homogenized, and lysed in RIPA Lysis and Extraction Buffer with protease inhibitors. The pyruvate kinase (PK) activity assay, as described above, was performed using 4 to 8 microliters of rat retinal lysate, similar to what we and others have previously described. Analogous to the cell culture assays, the total protein of the lysate was used to normalize pyruvate kinase activity.

[4] = Aqueous solubility (Eurofins Panlabs, HPLC-UV/Vis); format: physicochemical; conditions: aqueous buffer, kinetic from dmso stock; PBS, pH 7.4, 24 h, room temperature (Table 1)
Procedure: as §2

recombinant PKM1 = target: T4, recombinant PKM1 (Homo sapiens, UniProt P14618); assay: Pyruvate kinase enzyme-coupled assay with recombinant PKM1; format: biochemical; conditions: increasing concentrations (Figure 6b)
T4 construct: purchased Sigma SRP0415
Procedure: as §3, §1

[5] = final vitreous concentration 1 μM, 4 h (Figure 6a)

T1 sequence (P14618 whole entry): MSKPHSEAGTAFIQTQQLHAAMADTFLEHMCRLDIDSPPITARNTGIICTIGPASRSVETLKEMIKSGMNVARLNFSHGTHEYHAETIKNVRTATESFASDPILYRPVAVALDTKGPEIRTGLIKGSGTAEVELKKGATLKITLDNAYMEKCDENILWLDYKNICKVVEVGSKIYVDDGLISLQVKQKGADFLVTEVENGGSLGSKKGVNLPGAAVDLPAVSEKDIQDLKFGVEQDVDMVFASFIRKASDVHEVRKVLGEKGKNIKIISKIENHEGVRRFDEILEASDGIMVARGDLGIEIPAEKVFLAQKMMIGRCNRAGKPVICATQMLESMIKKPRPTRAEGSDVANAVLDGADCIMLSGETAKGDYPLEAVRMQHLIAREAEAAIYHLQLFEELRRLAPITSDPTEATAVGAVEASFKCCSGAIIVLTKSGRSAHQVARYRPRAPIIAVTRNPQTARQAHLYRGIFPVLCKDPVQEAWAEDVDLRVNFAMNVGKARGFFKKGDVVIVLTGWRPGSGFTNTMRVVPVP
T3 sequence (P11980 1-531 isoform P11980-2): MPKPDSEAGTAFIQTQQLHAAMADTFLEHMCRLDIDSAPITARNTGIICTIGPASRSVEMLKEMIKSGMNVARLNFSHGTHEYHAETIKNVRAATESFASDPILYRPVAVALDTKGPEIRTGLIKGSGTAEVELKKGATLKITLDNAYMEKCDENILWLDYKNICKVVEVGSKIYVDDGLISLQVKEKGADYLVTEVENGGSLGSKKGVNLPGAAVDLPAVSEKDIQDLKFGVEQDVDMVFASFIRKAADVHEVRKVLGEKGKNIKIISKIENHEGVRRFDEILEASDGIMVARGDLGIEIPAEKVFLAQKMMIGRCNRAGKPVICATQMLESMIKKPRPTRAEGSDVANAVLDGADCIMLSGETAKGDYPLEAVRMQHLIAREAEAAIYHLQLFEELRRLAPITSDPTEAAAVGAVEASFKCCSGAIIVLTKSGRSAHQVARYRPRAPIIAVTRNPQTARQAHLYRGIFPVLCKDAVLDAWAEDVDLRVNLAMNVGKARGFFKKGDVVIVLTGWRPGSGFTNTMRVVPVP
T2 sequence (P52480 whole entry): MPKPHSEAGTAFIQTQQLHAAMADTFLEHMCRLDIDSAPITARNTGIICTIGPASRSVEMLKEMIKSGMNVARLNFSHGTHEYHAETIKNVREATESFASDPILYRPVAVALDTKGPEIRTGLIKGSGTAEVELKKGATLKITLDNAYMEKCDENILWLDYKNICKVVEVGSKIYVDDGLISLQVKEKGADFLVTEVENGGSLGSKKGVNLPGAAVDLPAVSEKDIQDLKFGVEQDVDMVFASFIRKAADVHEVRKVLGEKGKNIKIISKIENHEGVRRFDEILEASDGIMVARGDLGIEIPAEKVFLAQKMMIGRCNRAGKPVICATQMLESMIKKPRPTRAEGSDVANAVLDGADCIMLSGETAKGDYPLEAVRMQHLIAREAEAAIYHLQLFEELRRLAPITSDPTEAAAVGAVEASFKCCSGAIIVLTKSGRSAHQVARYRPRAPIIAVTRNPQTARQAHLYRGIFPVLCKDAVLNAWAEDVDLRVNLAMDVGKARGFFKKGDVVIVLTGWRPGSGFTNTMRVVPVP
T4 sequence (P14618 1-531 isoform P14618-2): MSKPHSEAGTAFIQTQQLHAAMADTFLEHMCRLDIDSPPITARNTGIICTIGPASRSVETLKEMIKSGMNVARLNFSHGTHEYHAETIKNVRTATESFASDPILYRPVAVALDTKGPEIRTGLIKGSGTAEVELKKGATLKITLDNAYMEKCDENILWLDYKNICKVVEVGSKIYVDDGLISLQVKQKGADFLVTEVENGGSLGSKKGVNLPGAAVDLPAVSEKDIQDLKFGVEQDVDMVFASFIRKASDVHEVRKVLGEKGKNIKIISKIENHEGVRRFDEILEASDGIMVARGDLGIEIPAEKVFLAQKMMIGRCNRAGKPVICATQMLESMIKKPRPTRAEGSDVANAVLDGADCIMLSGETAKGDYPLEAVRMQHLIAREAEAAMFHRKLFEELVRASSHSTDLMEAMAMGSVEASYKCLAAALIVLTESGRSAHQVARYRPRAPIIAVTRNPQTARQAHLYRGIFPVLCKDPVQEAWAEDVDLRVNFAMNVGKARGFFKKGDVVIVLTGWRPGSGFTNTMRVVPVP

Row | AC50 (human recombinant PKM2) [nM] | Emax (human recombinant PKM2) [%] | AC50 [1] [nM] | Emax [1] [%] | solubility at 24 h [2] [µM] | solubility at 24 h [4] [µM] | PK activity increase, less than that observed with ML-265 [3, 5] | activation of recombinant PKM1 (recombinant PKM1) | SMILES | PK activation in rat retina compared with ML-265 [3, 5] | AC50 ([3]; increasing concentrations, retina 4 h, read-out: in vivo AC50) [nM] | Emax ([3]; rat, increasing concentrations, retina 4 h, normalized to DMSO, read-out: in vivo PK activity (maximum activation)) [%]
1 | 58 ± 5 | 213 ± 6 | 1620 ± 428 | 430 ± 33 | 1120 (≈ 442 µg/mL) |  |  |  | Cc1cccc(Cn2ncc3c4cc(F)c(CNCCO)cc4n(C)c3c2=O)n1 [Compound 17] |  |  | 
2 | 66 ± 10 | 339 ± 16 | 72 ± 24 | 299 ± 18 | 334 (≈ 141 µg/mL) |  |  |  | Cn1c2cc(CN3CCNCC3)c(F)cc2c2cnn(Cc3ccccc3F)c(=O)c21 [Compound 21] | approximately a third of the retinal PK activation as that achieved with ML-265 |  | 
3 | 61 ± 12 | 249 ± 14 | 132 ± 47 | 236 ± 16 |  | 12.7 (≈ 4.04 µg/mL) |  |  | Cc1ccc2c3cnn(Cc4cccc(N)c4)c(=O)c3n(C)c2c1 [Compound 5] |  |  | 
4 | 47 ± 10 | 279 ± 16 | 104 ± 32 | 280 ± 17 |  | 12.1 (≈ 4.25 µg/mL) |  |  | Cn1c2cc([S+](C)[O-])ccc2c2cnn(Cc3ccccc3)c(=O)c21 (stereo not shown) [Compound 3] |  |  | 
5 | 62 ± 11 | 239 ± 12 | 93 ± 29 | 288 ± 17 | 462 (≈ 184 µg/mL) |  |  |  | Cn1c2cc(CNCCO)c(F)cc2c2cnn(Cc3ccccc3F)c(=O)c21 [Compound 20] |  |  | 
6 | 65 ± 8 | 224 ± 8 | 162 ± 46 | 268 ± 15 | 397 (≈ 167 µg/mL) |  |  |  | Cc1cccc(Cn2ncc3c4cc(F)c(CN5CCOCC5)cc4n(C)c3c2=O)n1 [Compound 16] |  |  | 
7 | 23 ± 4 | 224 ± 9 | 175 ± 64 | 219 ± 16 |  | < 0.01 |  |  | Cc1ccc2c3cnn(Cc4ccccc4)c(=O)c3n(C)c2c1 [Compound 1] |  |  | 
8 | 64 ± 4 | 245 ± 5 | 106 ± 27 | 257 ± 12 | 858 (≈ 348 µg/mL) |  | 20–30% |  | Cc1cccc(Cn2ncc3c4cc(F)c(CN5CCCC5)cc4n(C)c3c2=O)n1 [Compound 18] |  |  | 
9 | 83 ± 9 | 266 ± 9 | 222 ± 81 | 297 ± 22 |  |  | 20–30% | did not activate | Cc1cccc(Cn2ncc3c4cc(F)c(CN(C)C)cc4n(C)c3c2=O)n1 [Compound 19] |  |  | 
10 | 48 ± 10 | 216 ± 12 | 66 ± 19 | 256 ± 13 |  | < 0.01 |  |  | CSc1ccc2c3cnn(Cc4cccc(N)c4)c(=O)c3n(C)c2c1 [Compound 4] |  |  | 

Row | SMILES | AC50 (human recombinant PKM2) [nM] | Emax (human recombinant PKM2) [%] | AC50 [1] [nM] | Emax [1] [%] | solubility at 24 h [2] [µM] | solubility at 24 h [4] [µM] | PK activity increase, less than that observed with ML-265 [3, 5] | activation of recombinant PKM1 (recombinant PKM1) | PK activation in rat retina compared with ML-265 [3, 5] | AC50 ([3]; increasing concentrations, retina 4 h, read-out: in vivo AC50) [nM] | Emax ([3]; rat, increasing concentrations, retina 4 h, normalized to DMSO, read-out: in vivo PK activity (maximum activation)) [%]
11 | Cn1c2cc([S+](C)[O-])sc2c2cnn(Cc3cccc(N)c3)c(=O)c21 (stereo not shown) [ML-265, reference compound] |  | 292 ± 21 | 108 ± 32 | 370 ± 21 |  |  |  |  |  | 866 ± 176 | 202 ± 8
